molecular target: ALK2 (aa 147-end) (Homo sapiens (Human), UniProt Q04771); test: ALK2 HTRF Assay; type: biochemical; conditions: 3 μM ATP, 0.5 nM ALK2, 2 hr, 25° C.; read-out: ALK2 IC50
Sequence (Q04771 147-509): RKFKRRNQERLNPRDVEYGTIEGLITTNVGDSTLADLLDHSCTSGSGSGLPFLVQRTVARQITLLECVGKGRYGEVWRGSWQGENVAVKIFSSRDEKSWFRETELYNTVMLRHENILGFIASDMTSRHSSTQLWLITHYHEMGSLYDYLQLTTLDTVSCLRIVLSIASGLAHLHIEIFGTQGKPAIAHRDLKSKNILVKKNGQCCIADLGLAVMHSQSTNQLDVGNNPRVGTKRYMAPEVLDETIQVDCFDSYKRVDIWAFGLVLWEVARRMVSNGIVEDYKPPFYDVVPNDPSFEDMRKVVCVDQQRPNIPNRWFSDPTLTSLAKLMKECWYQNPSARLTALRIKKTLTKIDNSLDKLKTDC

| SMILES | IC50 [nM] |
| --- | --- |
| Cc1nn2c(-c3ccnc4cc(CN5CCOCC5)ccc34)cnc2cc1-c1ccc(N2CCNCC2)cc1 [Example 24, 4-((4-(6-methyl-7-(4-(piperazin-1-yl)phenyl)imidazo[1,2-b]pyridazin-3-yl)quinolin-7-yl)methyl)morpholine] | 5 to 100 |
| Cc1nn2c(-c3ccnc4cc(C(O)c5cc(F)cc(F)c5)ccc34)cnc2cc1-c1ccc(N2CCNCC2)cc1 (stereo not drawn) [Example 25, (3,5-difluorophenyl)(4-(6-methyl-7-(4-(piperazin-1-yl)phenyl)imidazo[1,2-b]pyridazin-3-yl)quinolin-7-yl)methanol] | 1 to 5 |

Continued, values first:

| IC50 [nM] | SMILES |
| --- | --- |
| 1 to 5 | CCn1cnc(-c2ccc3c(-c4cnc5cc(-c6ccc(CN7CCC(O)CC7)cc6)c(C)nn45)ccnc3n2)c1 [Example 71, 1-(4-(3-(7-(1-Ethyl-1H-imidazol-4-yl)-1,8-naphthyridin-4-yl)-6-methylimidazo[1,2-b]pyridazin-7-yl)benzyl)piperidin-4-ol] |
| < 1 | Cc1nn2c(-c3ccnc4nc(-c5ncccn5)ccc34)cnc2cc1-c1cnn(C(C)C)c1 [Example 40, 5-(7-(1-Isopropyl-1H-pyrazol-4-yl)-6-methylimidazo[1,2-b]pyridazin-3-yl)-2-(pyrimidin-2-yl)-1,8-naphthyridine] |
| 1 to 5 | Cc1nn2c(-c3ccnc4cc(-c5ccncc5)ccc34)cnc2cc1-c1ccc(C(=O)N2CCN(C)CC2)cc1 [Example 14, (4-(6-Methyl-3-(7-(pyridin-4-yl)quinolin-4-yl)imidazo[1,2-b]pyridazin-7-yl)phenyl)(4-methylpiperazin-1-yl)methanone] |

system: ALK2 mutant DIPG cell; test: not given; conditions: ALK2 mutant DIPG cells; cited from earlier work

| SMILES | inhibition of ALK2 mutant DIPG cell viability |
| --- | --- |
| c1ccc2c(-c3cnn4cc(-c5ccc(N6CCNCC6)cc5)cnc34)ccnc2c1 [LDN-19318917] | significant inhibition |

Source: patent publication US11459329B2, “Imidazopyridazine and imidazopyridine compounds and uses thereof” (Incyte Corporation, priority 2018, dated 2022)
